Results published in article PMC10064984, “Anti-cyclooxygenase, anti-glycation, and anti-skin aging effect of Dendrobium officinale flowers’ aqueous extract and its phytochemical validation in aging” (Frontiers in Immunology, 2023).
“And” between values parts separate entries of the source, which are not always exact repeats. Equal values may be shown once.

How the values were obtained:
Assay type in all cases: biochemical
DPPH· scavenging = settings: mean ± SD, n = 3
[1] = ABTS·+ decolourisation capacity; settings: mean ± SD, n = 3
Protocol: Fast colourimetric methods were slightly modified for the in vitro assessment of DPPH· scavenging ([19]), ABTS·+ decolourisation capacity ([20]), and total antioxidant capacity of FRAP ([21]). The stock solutions of derivatisation reagents were diluted as follows before measurement: DPPH was diluted with absolute ethanol until the absorbance was 0.8 ± 0.05 at λ = 517 nm. ABTS working solution was prepared with phosphate buffer (0.2 M, pH 7.4) to display absorbance of 0.8 ± 0.05 at λ = 729 nm, based on a previous study ([22]). The FRAP solution was prepared according to the instructions of the FRAP kit. Absorbances were measured using an automatic microplate reader (Molecular Group Ltd., USA), and all analyses were performed using 96-well plates. All measurements were performed in triplicate, and Trolox was used as a positive control.
For ABTS·+ decolourisation capacity, 100 μl of ABTS working solution was mixed with 200 μl of sample solution, and the absorbance was recorded after 10 min at 729 nm. Phosphate buffer (0.2 M, pH 7.4) was used as a negative control.
DPPH· and ABTS·+ radical scavenging activities of the tested sample were both calculated using the following formula:
% inhibition = (A control − A sample)/A control × 100
Where A control and A sample represent the absorbance of the control and test samples, respectively. The IC50 was calculated graphically from the dose-inhibition curves.

[2] = FRAP total antioxidant capacity; settings: lower part of sheet (compound series);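 further: colourimetric FRAP kit assay read as absorbance in 96-well plates, values as mM FeSO4 via standard curve, EC1 being sample concentration matching 1.0 mmol/L FeSO4, Trolox positive control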
COX-2 = biological target: T1, COX-2 (Homo sapiens, UniProt P35354); test: Anti-COX-2 assay (COX-2 Inhibitor Screening Kit); settings: for COX-2 inhibition: single replicates
T1 construct: purchased Beyotime S0168
T1 sequence (P35354 18-604): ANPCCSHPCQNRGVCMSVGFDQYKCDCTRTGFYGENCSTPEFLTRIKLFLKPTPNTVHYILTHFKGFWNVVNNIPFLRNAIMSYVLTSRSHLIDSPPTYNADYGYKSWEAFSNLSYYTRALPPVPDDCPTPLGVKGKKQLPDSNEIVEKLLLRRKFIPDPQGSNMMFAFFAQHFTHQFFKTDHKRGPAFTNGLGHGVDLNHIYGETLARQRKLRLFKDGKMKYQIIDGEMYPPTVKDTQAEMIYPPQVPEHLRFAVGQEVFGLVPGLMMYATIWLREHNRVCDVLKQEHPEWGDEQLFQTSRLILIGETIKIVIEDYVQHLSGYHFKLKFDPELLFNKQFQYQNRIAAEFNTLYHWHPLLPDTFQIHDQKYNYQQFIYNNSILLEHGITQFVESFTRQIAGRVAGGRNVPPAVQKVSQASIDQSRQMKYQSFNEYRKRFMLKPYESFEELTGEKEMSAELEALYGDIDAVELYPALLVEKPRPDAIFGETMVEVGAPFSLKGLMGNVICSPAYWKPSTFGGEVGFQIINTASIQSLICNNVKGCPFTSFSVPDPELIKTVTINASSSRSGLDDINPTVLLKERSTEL

[3] = Fluorescent AGEs formation in a BSA-fructose/glucose system; settings: for inhibition of fluorescent AGEs formation (BSA-抗糖化), single replicate: individual replicate; for inhibition of fluorescent AGEs formation (BSA-抗糖化), 平均 (mean): mean of 3 replicates; for IC50: mean ± SD, n = 3, read-out: BSA-glycation IC50
Protocol: Glycated protein was prepared in vitro by incubating BSA in the presence of D-glucose (GLC) and D-fructose (FRC). The DOF extract and specific standards were dissolved in DMSO:water (1:4). […] The assay was performed in triplicate, and AG was used as a positive control. The percentage inhibition of fluorescent AGE formation was calculated using the following equation: […] Where IF sample is fluorescence intensity in the presence of samples and BSA, IF sample control is fluorescence intensity in the presence of samples without BSA, IF control is fluorescence intensity without samples, and IF blank control is fluorescence intensity without samples and BSA.

Structure (SMILES) | IC50 (DPPH· scavenging) [µM] | IC50 [1] [µM] | FRAP EC1 [2] [µM] | COX-2 inhibition (in words) (COX-2) | inhibition of fluorescent AGEs formation (BSA-抗糖化), 平均 (mean) ([3]; 15.625 µM) [%] | inhibition of fluorescent AGEs formation (BSA-抗糖化), 平均 (mean) ([3]; 31.25 µM) [%] | inhibition of fluorescent AGEs formation (BSA-抗糖化), 平均 (mean) ([3]; 62.5 µM) [%] | inhibition of fluorescent AGEs formation (BSA-抗糖化), 平均 (mean) ([3]; 125 µM) [%] | inhibition of fluorescent AGEs formation (BSA-抗糖化), 平均 (mean) ([3]; 250 µM) [%] | inhibition of fluorescent AGEs formation (BSA-抗糖化), 平均 (mean) ([3]; 500 µM) [%] | inhibition of fluorescent AGEs formation (BSA-抗糖化), 平均 (mean) ([3]; 1000 µM) [%] | inhibition of fluorescent AGEs formation (BSA-抗糖化), 平均 (mean) ([3]; 2000 µM) [%] | inhibition of fluorescent AGEs formation (BSA-抗糖化), 平均 (mean) ([3]; 4000 µM) [%] | IC50 [3] [µM] | other results
O=c1cc(-c2ccc(O)cc2)oc2c(C3OCC(O)C(O)C3O)c(O)c(C3OCC(O)C(O)C3O)c(O)c12 [compound 26, Apigenin-6-C-α-L-arabinoside-8-C-β-D-xyloside] | > 5000 | 80.36 ± 0.77 | >5000 | no inhibitory effects | 0.045 | 7.02 | 16.21 | 28.63 | 47.99 | 66.98 | 81.79 | 90.42 | 95.27 | 273 ± 4.7 | inhibition of fluorescent AGEs formation (BSA-抗糖化), single replicate ([3]; 15.625 µM, listed as T10, 15.625 µM): -0.15% and 0.19% and 0.09%; inhibition of fluorescent AGEs formation (BSA-抗糖化), single replicate ([3]; 31.25 µM, listed as T10, 31.25 µM): 6.49% and 8.31% and 6.26%; inhibition of fluorescent AGEs formation (BSA-抗糖化), single replicate ([3]; 62.5 µM, listed as T10, 62.5 µM): 15.98% and 16.92% and 15.72%; inhibition of fluorescent AGEs formation (BSA-抗糖化), single replicate ([3]; 125 µM, listed as T10, 125 µM): 27.64% and 28.36% and 29.90%; inhibition of fluorescent AGEs formation (BSA-抗糖化), single replicate ([3]; 250 µM, listed as T10, 250 µM): 48.76% and 48.06% and 47.15%; inhibition of fluorescent AGEs formation (BSA-抗糖化), single replicate ([3]; 500 µM, listed as T10, 500 µM): 67.27% and 67.99% and 65.66%; inhibition of fluorescent AGEs formation (BSA-抗糖化), single replicate ([3]; 1000 µM, listed as T10, 1000 µM): 82.36% and 81.32% and 81.69%; inhibition of fluorescent AGEs formation (BSA-抗糖化), single replicate ([3]; 2000 µM, listed as T10, 2000 µM): 90.52% and 90.97% and 89.78%; inhibition of fluorescent AGEs formation (BSA-抗糖化), single replicate ([3]; 4000 µM (series head 'T9 4000µM', 2-fold dilutions), listed as T10): 95.10% and 95.64% and 95.09%
O=c1c(O[C@@H]2O[C@H](CO)[C@@H](O)[C@H](O)[C@H]2O)c(-c2ccc(O)cc2)oc2cc(O)cc(O)c12 [compound 31, Astragalin] | > 5000 | 34.31 ± 0.1 | >5000 | no inhibitory effects | 3.23 | 7.45 | 17.74 | 29.92 | 47.12 | 66.84 | 78.97 | 89.80 | 94.53 | 276 ± 33 | COX-2 inhibition (COX-2; 3.125 μM, listed as T13, 3.125 µM): 9.26% and 13.01% and -4.90%; COX-2 inhibition (COX-2; 6.25 μM, listed as T13, 6.25 µM): 7.55% and 7.65% and -2.11%; COX-2 inhibition (COX-2; 12.5 μM, listed as T13, 12.5 µM): 5.53% and -11.45% and -30.89%; COX-2 inhibition (COX-2; 25 μM, listed as T13, 25 µM): -6.59% and -8.12% and -23.58%; COX-2 inhibition (COX-2; 50 μM, listed as T13, 50 µM): -22.46% and -22.25% and -29.37%; COX-2 inhibition (COX-2; 100 μM, listed as T13, 100 µM): -33.58% and -17.93% and -41.32%; COX-2 inhibition (COX-2; 200 μM, listed as T13, 200 µM): -24.47% and -35.20% and -49.99%; inhibition of fluorescent AGEs formation (BSA-抗糖化), single replicate ([3]; 15.625 µM, listed as T13, 15.625 µM): 3.97% and 2.43% and 3.28%; inhibition of fluorescent AGEs formation (BSA-抗糖化), single replicate ([3]; 31.25 µM, listed as T13, 31.25 µM): 6.47% and 9.23% and 6.65%; inhibition of fluorescent AGEs formation (BSA-抗糖化), single replicate ([3]; 62.5 µM, listed as T13, 62.5 µM): 16.61% and 18.46% and 18.15%; inhibition of fluorescent AGEs formation (BSA-抗糖化), single replicate ([3]; 125 µM, listed as T13, 125 µM): 25.98% and 33.83% and 29.94%; inhibition of fluorescent AGEs formation (BSA-抗糖化), single replicate ([3]; 250 µM, listed as T13, 250 µM): 39.66% and 53.40% and 48.31%; inhibition of fluorescent AGEs formation (BSA-抗糖化), single replicate ([3]; 500 µM, listed as T13, 500 µM): 65.95% and 67.35% and 67.23%; inhibition of fluorescent AGEs formation (BSA-抗糖化), single replicate ([3]; 1000 µM, listed as T13, 1000 µM): 79.55% and 78.97% and 78.39%; inhibition of fluorescent AGEs formation (BSA-抗糖化), single replicate ([3]; 2000 µM, listed as T13, 2000 µM): 89.49% and 89.99% and 89.93%; inhibition of fluorescent AGEs formation (BSA-抗糖化), single replicate ([3]; 4000 µM (series head 'T9 4000µM', 2-fold dilutions), listed as T13): 94.89% and 93.91% and 94.80%
